Laboratory results: patent US20030032674A1, “Use of unsaturated fatty acids to treat severe inflammatory diseases” (priority 2001, published 2003)

Tests used:
TLR2 = molecular target: T1, TLR2 (Homo sapiens, UniProt O60603); test: NFκB reporter in TLR2-transfected 293T cells; format: cell-based; settings: PamCAG 100 ng/ml
T1 construct: expressed in transfected cells; host or cells: 293T (stated not to express TLR2)
Text: Plasmids and DNA Constructs—All plasmids and constructs were obtained or made as reported in either S. H. Rhee and D. Hwang, “Murine TOLL-like receptor 4 confers lipopolysaccaride responsiveness as determined by activation of NFκB and expression of the inducible cyclooxygenase,” Journal of Biological Chemistry, vol. 275, pp. 34035-34040 (2000); and J. Y. Lee et al., “Saturated fatty acids, but not unsaturated fatty acids, induce the expression of cyclooxygenase-2 mediated through TOLL-like receptor 4,” Journal of Biological Chemistry, vol. 276, pp. 16683-16689 (2001). Briefly, the luciferase reporter plasmids (pGL2) containing the promoter region of the murine COX-2 gene (−3201/+93 or −1017/+93) were provided by David Dewitt (Michigan State University, East Lansing, Mich.). To prepare the wild-type COX-2 promoter fragment, polymerase chain reaction (PCR) was performed with the primers named Kpn-COX2-For and Hind-COX2-Rev using the murine COX-2 (−1017/+93) luciferase reporter plasmid as a template. To prepare the mutant COX-2 promoter fragment containing mutated NFκB site, Kpn-COX2-Fmut and Hind-COX2-Rev were used as primers. […]
Acylation by saturated fatty acids of bacterial lipopeptides is also required for the activation of TLR2. […] After 18 hr, luciferase activities were determined. […]

COX-2 promoter = COX-2 promoter luciferase reporter, stably transfected RAW 264.7 cells, TLR agonist-induced; format: cell-based, murine; settings: pretreated 3 hrs
Method: Preparation of stably transfected cells with luciferase reporter plasmids. RAW 264.7 cells (1×10^6 cells) were plated in 100 mm dish and transfected with murine COX-2 promoter (−3.2 kb) luciferase plasmid using Superfect Transfection reagent (Qiagen) according to the manufacturer's instruction. pcDNA3/neo was co-transfected to select transfected cells using the antibiotic. After 48 hrs of stabilization, the new media containing Geneticin (500 μg/ml) was added and changed for appropriate time periods. Two weeks later, the colonies that survived were selected and propagated under Geneticin. After another two weeks of antibiotic selection, the luciferase activities were determined for each colony after treatment with LPS (100 ng/ml).
These stably transfected cell lines eliminated the necessity of transfecting plasmids for the reporter gene and the internal control. Thus, inhibitory or stimulatory effects of various fatty acids on agonist-induced TLR activation were quantitatively determined in a high throughput mode using 96 well plates. […] Therefore, NFκB activation and COX-2 expression was used as readouts for agonist-induced TLR activation, and its suppression or potentiation by fatty acids in this experiment. […]
(FIG. 10A). […] After 8 hrs, luciferase activities were determined. Data are expressed as a percentage of PamCAG treatment alone.

T1 sequence (O60603 21-784, species assumed): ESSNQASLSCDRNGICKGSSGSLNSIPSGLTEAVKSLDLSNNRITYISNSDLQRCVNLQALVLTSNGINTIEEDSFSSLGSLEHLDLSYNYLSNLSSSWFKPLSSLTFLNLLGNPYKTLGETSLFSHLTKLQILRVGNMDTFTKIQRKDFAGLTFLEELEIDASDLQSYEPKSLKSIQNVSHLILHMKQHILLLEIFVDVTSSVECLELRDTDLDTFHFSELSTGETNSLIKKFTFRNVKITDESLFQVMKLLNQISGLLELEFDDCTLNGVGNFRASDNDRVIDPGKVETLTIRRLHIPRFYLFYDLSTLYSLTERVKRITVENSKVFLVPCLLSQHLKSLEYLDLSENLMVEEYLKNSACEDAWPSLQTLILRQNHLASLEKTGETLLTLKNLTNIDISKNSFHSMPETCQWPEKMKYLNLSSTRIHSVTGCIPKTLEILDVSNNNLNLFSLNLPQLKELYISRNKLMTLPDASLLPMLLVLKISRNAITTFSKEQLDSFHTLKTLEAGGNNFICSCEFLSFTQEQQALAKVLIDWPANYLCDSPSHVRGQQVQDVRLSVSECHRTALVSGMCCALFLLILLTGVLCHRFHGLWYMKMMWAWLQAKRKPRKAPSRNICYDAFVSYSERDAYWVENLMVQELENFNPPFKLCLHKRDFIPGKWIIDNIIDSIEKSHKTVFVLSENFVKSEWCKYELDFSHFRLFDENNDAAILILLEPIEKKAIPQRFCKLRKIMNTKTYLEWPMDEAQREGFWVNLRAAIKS

CCCCCCCCCCCC(=O)O [lauric acid]
potentiated: effect on NFκB activation induced by PamCAG (TLR2) | effect on LPS-induced COX-2 expression (reporter gene) (COX-2 promoter; LPS 200 ng/ml 8 hrs) | effect on PamCAG-induced COX-2 expression (COX-2 promoter; PamCAG 500 ng/ml 8 hrs)
